Data taken from patent publication US12551532B2, “Long-acting amylin receptor agonists and uses thereof” (Eli Lilly and Company, priority 2021, dated 2026).
Starred links: 1 amine or outer side, 2 acyl side, 3 side chain; linkers in the order of their positions; H or OH if unused. Positions of bridges follow the written chain, without caps; N, C: chain ends. Non-standard residues stand in square brackets, D forms with d. Residues, ends and D or L forms follow the SMILES beside them. Groups on a side chain read outwards from the residue. *: point of attachment. C20 diacid = O=C(O)CCCCCCCCCCCCCCCCCCC(=O)*; γGlu = O=C(O)[C@H](CCC(=O)[*:2])N[*:1]; αMeL = CC(C)C[C@](C)(N)C(=O)O; Orn = NCCC[C@H](N)C(=O)O; CH2 = C([*:1])[*:2]

Assay: Food intake and body weight in normal rats, single SC dose
Format: in vivo, Sprague Dawley rats
Conditions: for Δ Body Weight: 96 hours post dose vs initial weights; for Cumulative Food Intake Change vs Vehicle: 96 hours post dose vs vehicle
Method: Male Sprague Dawley rats from Envigo RMS (Indianapolis, IN) are maintained on a chow diet (2014; Teklad Global, Envigo RMS, Indianapolis, IN) and single housed in a temperature-controlled facility (72.0° F.; 22.2° C.) with a reversed 12:12-hour light cycle (10 AM OFF) and free access to food and water. At 10 weeks of age, non-fasted body weights and initial food weights are recorded, and animals are administered a single subcutaneous injection (SC) of vehicle or acylated peptide (1 mL/kg), followed by daily measurements of body weight and food intake for 4 days post dose. Area under the curve analysis (AUC) is calculated for both body weight and food intake versus vehicle.

CC[C@H](C)[C@H](NC(=O)[C@@H]1CCCN1C(=O)CNC(=O)[C@H](Cc1ccccc1)NC(=O)[C@H](CC(N)=O)NC(=O)[C@H](Cc1c[nH]cn1)NC(=O)[C@H](CO)NC(=O)[C@H](CO)NC(=O)[C@H](CCCNC(=N)N)NC(=O)[C@@H](NC(=O)[C@H](CC(C)C)NC(=O)[C@H](Cc1ccccc1)NC(=O)[C@H](CCC(=O)O)NC(=O)[C@H](C)NC(=O)[C@](C)(CC(C)C)NC(=O)[C@H](CCCN)NC(=O)CNC(=O)[C@@H](NC(=O)[C@H](C)NC(=O)[C@@H]1CSCSC[C@H](NC(=O)[C@@H](N)CCCCNC(=O)CC[C@H](NC(=O)CC[C@H](NC(=O)CCCCCCCCCCCCCCCCCCC(=O)O)C(=O)O)C(=O)O)C(=O)N[C@@H](CCC(=O)O)C(=O)N[C@@H]([C@@H](C)O)C(=O)N[C@@H](C)C(=O)N[C@@H]([C@@H](C)O)C(=O)N1)[C@@H](C)O)C(C)C)C(=O)N[C@@H](CC(C)C)C(=O)N1CCC[C@H]1C(=O)N1CCC[C@H]1C(=O)N[C@H](C(=O)N[C@@H](CCC(=O)O)C(=O)N[C@H](C(=O)NCC(=O)N[C@@H](CO)C(=O)N[C@@H](CC(N)=O)C(=O)N[C@H](C(=O)N[C@@H](Cc1ccc(O)cc1)C(N)=O)[C@@H](C)O)C(C)C)[C@@H](C)O [Compound VIII] (H-K([γGlu-γGlu-C20 diacid])CETATCATG[Orn][αMeL]AEFLVRSSHNFGPILPPTEVGSNTY-NH2; linker 2-7 via CH2)
Δ Body Weight (0.1 nmol/kg SC single dose): 2.0%
Cumulative Food Intake Change vs Vehicle (0.1 nmol/kg SC single dose): 1.3%
Δ Body Weight (0.3 nmol/kg SC single dose): 1.6%
Cumulative Food Intake Change vs Vehicle (0.3 nmol/kg SC single dose): 3.2%
Δ Body Weight (1 nmol/kg SC single dose): −1.0%
Cumulative Food Intake Change vs Vehicle (1 nmol/kg SC single dose): −17.5%
Δ Body Weight (3 nmol/kg SC single dose): −3.9%
Cumulative Food Intake Change vs Vehicle (3 nmol/kg SC single dose): −37.7%
Δ Body Weight (10 nmol/kg SC single dose): −7.2%
Cumulative Food Intake Change vs Vehicle (10 nmol/kg SC single dose): −58.5%
Δ Body Weight (30 nmol/kg SC single dose): −10.8%
Cumulative Food Intake Change vs Vehicle (30 nmol/kg SC single dose): −67.0%
Δ Body Weight (100 nmol/kg SC single dose): −13.8%
Cumulative Food Intake Change vs Vehicle (100 nmol/kg SC single dose): −75.2%
Δ Body Weight (300 nmol/kg SC single dose): −13.6%
Cumulative Food Intake Change vs Vehicle (300 nmol/kg SC single dose): −74.9%
Δ Body Weight (1000 nmol/kg SC single dose): −18.9%
Cumulative Food Intake Change vs Vehicle (1000 nmol/kg SC single dose): −84.7%
